Laboratory results as given in patent publication US20240024273A1, “TOPICAL ADMINISTRATION OF 2-(DIETHYLAMINO)ETHYL 2-(4-ISOBUTYLPHENYL)PROPRIONATE FOR TREATMENT OF DISEASES” (TECHFIELDS PHARMA CO., LTD., priority 2020, published 2024).

System: Subjects with Osteoarthritis of the Knee
Experiment: Second Phase 2 study: safety (treatment-emergent adverse events)
Type: in vivo, human
Description: Safety assessments will be performed at each visit and will include assessment of AEs, vital signs (blood pressure, pulse rate, and oral temperature), clinical laboratories, physical examination, skin irritation, and electrocardiograms (ECGs) as indicated in the study flow chart, Table 47.
Safety assessments will include AEs, vital signs (blood pressures, pulse rate, and oral temperature), clinical laboratories, physical examination, skin irritation, and ECGs at various time points during the study as indicated in the study flow chart.
Adverse events of interest include: local skin reactions around the treated knee(s), upper stomach pain, GI bleeding, serious cardiovascular side effects (e.g., thrombotic events, myocardial infarction, or stroke), jaundice, elevated liver function tests, and nausea.
Safety analyses will be conducted on the SAS. Safety parameters will be listed and summarized using standard descriptive statistics, as appropriate. No formal statistical analyses are planned.

## CCN(CC)CCOC(=O)C(C)c1ccc(CC(C)C)cc1 (stereo not drawn) [2-(diethylamino)ethyl 2-(4-isobutylphenyl)propionate]
8.75 mg/knee, BID, N = 70
  Abdominal Discomfort: percentage of subjects with adverse events: 4.3%
  Abdominal Discomfort: subjects with adverse events: 3
  Abdominal Pain Upper: number of adverse events: 1
  Abdominal Pain Upper: percentage of subjects with adverse events: 1.4%
  Abdominal Pain Upper: subjects with adverse events: 1
  Administration Site Conditions: number of adverse events: 1
  Administration Site Conditions: percentage of subjects with adverse events: 1.4%
  Administration Site Conditions: subjects with adverse events: 1
  Alanine Aminotransferase Increased: number of adverse events: 1
  Alanine Aminotransferase Increased: percentage of subjects with adverse events: 1.4%
  Alanine Aminotransferase Increased: subjects with adverse events: 1
  Application Site Irritation: number of adverse events: 1
  Application Site Irritation: percentage of subjects with adverse events: 1.4%
  Application Site Irritation: subjects with adverse events: 1
  Back Pain: number of adverse events: 2(%)[2]
  Back Pain: subjects with adverse events, number (percentage): 2(%)[2]
  Blood Lactate Dehydrogenase Increased: number of adverse events: 1
  Blood Lactate Dehydrogenase Increased: percentage of subjects with adverse events: 1.4%
  Blood Lactate Dehydrogenase Increased: subjects with adverse events: 1
  Diarrhoea: number of adverse events: 2
  Diarrhoea: percentage of subjects with adverse events: 2.9%
  Diarrhoea: subjects with adverse events: 2
  Dizziness: number of adverse events: 2
  Dizziness: subjects with adverse events, number (percentage): 2(2.9%)
  Ear and Labyrinth Disorders: number of adverse events: 2
  Ear and Labyrinth Disorders: percentage of subjects with adverse events: 2.9%
  Ear and Labyrinth Disorders: subjects with adverse events: 2
  Frequency of Positive Fecal Occult Blood Test: 6
  Gastrointestinal Disorders: number of adverse events: 11
  Gastrointestinal Disorders: percentage of subjects with adverse events: 14.3%
  Gastrointestinal Disorders: subjects with adverse events: 10
  Headache: number of adverse events: 6
  Headache: subjects with adverse events, number (percentage): 4(5.7%)
  Hypercholesterolaemia: number of adverse events: 5
  Hypercholesterolaemia: percentage of subjects with adverse events: 7.1%
  Hypercholesterolaemia: subjects with adverse events: 5
  Hypertension: number of adverse events: 1
  Hypertension: percentage of subjects with adverse events: 1.4%
  Hypertension: subjects with adverse events: 1
  Hypertriglyceridemia: number of adverse events: 3
  Hypertriglyceridemia: percentage of subjects with adverse events: 4.3%
  Hypertriglyceridemia: subjects with adverse events: 3
  Hypoaesthesia: number of adverse events: 1
  Hypoaesthesia: subjects with adverse events, number (percentage): 1(1.4%)
  Infections and Infestations: number of adverse events: 20
  Infections and Infestations: subjects with adverse events, number (percentage): 20(28.6%)
  Influenza: number of adverse events: 1
  Influenza: subjects with adverse events, number (percentage): 1(1.4%)
  Investigations: number of adverse events: 5
  Investigations: percentage of subjects with adverse events: 7.1%
  Investigations: subjects with adverse events: 5
  Joint Stiffness: number of adverse events: 1(%)[1]
  Joint Stiffness: subjects with adverse events, number (percentage): 1(%)[1]
  Metabolism and Nutrition Disorders: number of adverse events: 8
  Metabolism and Nutrition Disorders: percentage of subjects with adverse events: 12.9%
  Metabolism and Nutrition Disorders: subjects with adverse events: 8
  Musculoskeletal and Connective Tissue Disorders, Overall Total: number of adverse events: 7
  Musculoskeletal and Connective Tissue Disorders, Overall Total: subjects with adverse events, number (percentage): 7(10.0%)
  Nausea: number of adverse events: 3
  Nausea: percentage of subjects with adverse events: 4.3%
  Nausea: subjects with adverse events: 3
  Neck Pain: number of adverse events: 3(%)[3]
  Neck Pain: subjects with adverse events, number (percentage): 3(%)[3]
  Nervous System Disorders: number of adverse events: 8
  Nervous System Disorders: subjects with adverse events, number (percentage): 7(10.0%)
  Oropharyngeal Pain: number of adverse events: 2
  Oropharyngeal Pain: subjects with adverse events, number (percentage): 2(1.4%)
  Pain in Extremity: number of adverse events: 1(%)[1]
  Pain in Extremity: subjects with adverse events, number (percentage): 1(%)[1]
  Respiratory, Thoracic and Mediastinal Disorders: number of adverse events: 3
  Respiratory, Thoracic and Mediastinal Disorders: subjects with adverse events, number (percentage): 3(4.3%)
  Skin Irritation: number of adverse events: 1
  Skin Irritation: percentage of subjects with adverse events: 1.4%
  Skin Irritation: subjects with adverse events: 1
  Skin and Subcutaneous Tissue Disorders: number of adverse events: 1
  Skin and Subcutaneous Tissue Disorders: percentage of subjects with adverse events: 1.4%
  Skin and Subcutaneous Tissue Disorders: subjects with adverse events: 1
  Subjects with Positive Fecal Occult Blood Test: 5
  Subjects with Positive Fecal Occult Blood Test, percentage: 7.1%
  Throat Irritation: number of adverse events: 1
  Throat Irritation: subjects with adverse events, number (percentage): 1(1.4%)
  Thrombosis: number of adverse events: 1
  Thrombosis: percentage of subjects with adverse events: 1.4%
  Thrombosis: subjects with adverse events: 1
  Tooth Infection: number of adverse events: 1
  Tooth Infection: subjects with adverse events, number (percentage): 1(1.4%)
  Toothache: number of adverse events: 1
  Toothache: percentage of subjects with adverse events: 1.4%
  Toothache: subjects with adverse events: 1
  Transaminases Increased: number of adverse events: 1
  Transaminases Increased: percentage of subjects with adverse events: 1.4%
  Transaminases Increased: subjects with adverse events: 1
  Upper Respiratory Tract Infection: number of adverse events: 12
  Upper Respiratory Tract Infection: subjects with adverse events, number (percentage): 12(15.7%)
  Urinary Tract Infection: number of adverse events: 6
  Urinary Tract Infection: subjects with adverse events, number (percentage): 6(8.6%)
  Vascular Disorders: number of adverse events: 2
  Vascular Disorders: percentage of subjects with adverse events: 2.9%
  Vascular Disorders: subjects with adverse events: 2
  Vertigo: number of adverse events: 2(%)[2]
  Vertigo: subjects with adverse events: 2(%)[2]
  White Blood Cell Count Decreased: number of adverse events: 2
  White Blood Cell Count Decreased: percentage of subjects with adverse events: 2.9%
  White Blood Cell Count Decreased: subjects with adverse events: 2
17.5 mg/knee (BID)
  GI disorders incidence rate: 5.7%
  incidence rate of AEs possibly, probably, or definitely related to study drug: 35.7%
  infections and infestations incidence rate: 18.6%
  positive fecal occult blood test incidence rate: 7.1%
17.5 mg/knee, BID, N = 70
  Abdominal Discomfort: number of adverse events: 1
  Abdominal Discomfort: percentage of subjects with adverse events: 1.4%
  Abdominal Discomfort: subjects with adverse events: 1
  Abdominal Pain Upper: number of adverse events: 2
  Abdominal Pain Upper: percentage of subjects with adverse events: 1.4%
  Abdominal Pain Upper: subjects with adverse events: 1
  Administration Site Conditions: number of adverse events: 4
  Administration Site Conditions: percentage of subjects with adverse events: 5.7%
  Administration Site Conditions: subjects with adverse events: 4
  Application Site Irritation: number of adverse events: 1
  Application Site Irritation: percentage of subjects with adverse events: 1.4%
  Application Site Irritation: subjects with adverse events: 1
  Application Site Rash: number of adverse events: 3
  Application Site Rash: percentage of subjects with adverse events: 4.3%
  Application Site Rash: subjects with adverse events: 3
